Holding throughout (type): functional, cell-based
The target of assay [1] is Muscarinic acetylcholine receptor M3 (Homo sapiens, UniProt P20309). Put plainly: Activation of human cloned muscarinic M3 receptor expressed in CHO-K1 cells by Calcium flux assay relative to control. Background: Calcium flux is commonly read through the fluorescence of an indicator in the cells.
Assay [2] has as its target T1, Muscarinic acetylcholine receptor M5 (Homo sapiens, UniProt P08912).
T1 sequence (P08912 whole entry): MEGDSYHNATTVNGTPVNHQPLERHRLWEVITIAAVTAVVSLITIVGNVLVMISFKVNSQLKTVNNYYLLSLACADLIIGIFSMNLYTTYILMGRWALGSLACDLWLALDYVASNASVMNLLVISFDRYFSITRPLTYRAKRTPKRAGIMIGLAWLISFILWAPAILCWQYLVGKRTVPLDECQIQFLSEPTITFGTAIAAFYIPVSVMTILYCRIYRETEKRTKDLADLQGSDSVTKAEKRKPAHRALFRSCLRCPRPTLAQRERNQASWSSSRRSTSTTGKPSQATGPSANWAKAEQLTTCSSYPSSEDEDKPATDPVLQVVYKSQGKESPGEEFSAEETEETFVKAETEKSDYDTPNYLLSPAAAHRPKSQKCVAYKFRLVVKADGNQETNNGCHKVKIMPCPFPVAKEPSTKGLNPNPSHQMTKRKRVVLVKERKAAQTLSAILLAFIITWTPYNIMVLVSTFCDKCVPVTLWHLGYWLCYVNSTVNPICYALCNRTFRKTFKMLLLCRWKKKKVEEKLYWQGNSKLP
Put plainly: Activation of human cloned muscarinic M5 receptor expressed in CHO-K1 cells by Calcium flux assay relative to control.

For assay [3], the target named is T2, Muscarinic acetylcholine receptor M4 (Homo sapiens, UniProt P08173).
T2 sequence (P08173 whole entry): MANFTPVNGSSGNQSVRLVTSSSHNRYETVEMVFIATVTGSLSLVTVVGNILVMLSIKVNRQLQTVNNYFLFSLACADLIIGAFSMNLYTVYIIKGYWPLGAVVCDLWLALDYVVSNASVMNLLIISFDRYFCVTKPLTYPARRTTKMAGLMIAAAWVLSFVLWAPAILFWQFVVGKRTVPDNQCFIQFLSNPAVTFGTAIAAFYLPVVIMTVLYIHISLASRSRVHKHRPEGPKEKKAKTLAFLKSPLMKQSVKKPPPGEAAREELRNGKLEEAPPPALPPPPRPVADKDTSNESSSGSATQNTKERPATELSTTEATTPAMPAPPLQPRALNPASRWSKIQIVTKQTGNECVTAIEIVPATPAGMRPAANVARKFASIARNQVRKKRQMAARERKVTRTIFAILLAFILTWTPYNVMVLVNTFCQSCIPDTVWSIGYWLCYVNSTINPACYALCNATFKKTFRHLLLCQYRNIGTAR
Put plainly: Activation of human cloned muscarinic M4 receptor expressed in CHO-K1 cells by Calcium flux assay relative to control.

For assay [4], the target named is T3, Muscarinic acetylcholine receptor M2 (Homo sapiens, UniProt P08172).
T3 sequence (P08172 whole entry): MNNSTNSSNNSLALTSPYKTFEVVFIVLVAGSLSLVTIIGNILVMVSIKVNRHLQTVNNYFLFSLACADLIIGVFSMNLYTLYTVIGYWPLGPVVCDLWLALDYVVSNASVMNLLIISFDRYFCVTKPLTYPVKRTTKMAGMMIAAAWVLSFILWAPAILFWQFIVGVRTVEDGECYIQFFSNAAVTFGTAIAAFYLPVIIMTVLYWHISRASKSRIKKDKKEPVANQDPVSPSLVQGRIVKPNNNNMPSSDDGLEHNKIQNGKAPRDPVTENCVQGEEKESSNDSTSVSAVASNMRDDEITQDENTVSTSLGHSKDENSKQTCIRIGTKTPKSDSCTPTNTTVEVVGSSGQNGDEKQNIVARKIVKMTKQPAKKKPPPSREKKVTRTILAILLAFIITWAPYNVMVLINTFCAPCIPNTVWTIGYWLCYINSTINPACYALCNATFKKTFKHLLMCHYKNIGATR
The assay is described as follows: Activation of human cloned muscarinic M2 receptor expressed in CHO-K1 cells by Calcium flux assay.

The values that follow come from ChEMBL document CHEMBL5390321, “Transaminases Provide Key Chiral Building Blocks for the Synthesis of Selective M1/M4 Agonists” (ACS Med Chem Lett, 2023).

SMILES strings stand for the structures. Where only a bound is given, the exact number is not on record here.

Muscarinic acetylcholine receptor M3, sequence (P20309 whole entry): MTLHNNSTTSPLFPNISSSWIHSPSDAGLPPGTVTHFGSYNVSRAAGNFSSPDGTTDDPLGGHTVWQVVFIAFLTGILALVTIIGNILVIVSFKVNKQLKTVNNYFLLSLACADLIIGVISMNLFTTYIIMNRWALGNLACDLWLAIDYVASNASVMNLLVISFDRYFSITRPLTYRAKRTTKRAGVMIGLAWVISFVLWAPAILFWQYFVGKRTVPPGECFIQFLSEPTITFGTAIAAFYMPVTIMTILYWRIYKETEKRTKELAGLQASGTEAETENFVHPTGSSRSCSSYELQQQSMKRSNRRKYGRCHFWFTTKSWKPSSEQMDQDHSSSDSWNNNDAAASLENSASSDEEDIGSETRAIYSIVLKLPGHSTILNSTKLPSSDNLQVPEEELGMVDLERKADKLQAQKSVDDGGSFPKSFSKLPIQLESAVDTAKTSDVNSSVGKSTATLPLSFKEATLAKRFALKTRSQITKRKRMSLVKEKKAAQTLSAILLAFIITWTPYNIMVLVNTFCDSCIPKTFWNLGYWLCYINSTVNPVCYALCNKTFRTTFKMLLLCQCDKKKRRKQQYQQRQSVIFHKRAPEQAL

A word on the EC50: it is the concentration that produces a half-maximal response. In the case of `COc1ccccc1C1CCN([C@@H]2COC3(C2)CN(C(=O)C2COC2)C3)CC1`, the EC50 in assay [1] and in assay [2] was > 25 µM in each case.

Consider `COc1ccc(F)cc1C1CCN([C@@H]2CCC3(C2)CN(C(=O)C2COC2)C3)CC1`, for which the results for the EC50 in assay [1], in assay [2] and in assay [3] were > 25 µM, 0.14 µM and 0.0017 µM, respectively.

Regarding `COc1cc(F)ccc1C1CCN([C@@H]2COC3(C2)CN(C(=O)C2COC2)C3)CC1`, the EC50 in assay [1] and in assay [2] was > 25 µM throughout.

For the molecule `CCOc1ccccc1C1CCN([C@@H]2CCC3(C2)CN(C(=O)C2COC2)C3)CC1`, the EC50 was > 25 µM in assay [1], > 25 µM in assay [2], 0.0065 µM in assay [3] and 0.21 µM in assay [4].

As to `COc1ccc(F)cc1C1CCN([C@@H]2COC3(C2)CN(C(=O)C2COC2)C3)CC1`, the EC50 in assay [1] and in assay [2] was > 25 µM each time.

On to `CCOc1ccccc1C1CCN([C@@H]2CCC3(C2)CN(C(C)=O)C3)CC1`, for which the EC50 in assay [1] is > 25 µM.

`COc1cc(F)ccc1C1CCN([C@@H]2CCC3(C2)CN(C(=O)C2COC2)C3)CC1`: the half-maximal effective concentration (EC50) in assay [1] is > 25 µM; in assay [2] it was > 25 µM; in assay [3] it was 0.0093 µM.

Take `CCOc1ccccc1C1CCN([C@@H]2CCC3(C2)CN(C(=O)CC)C3)CC1`: the EC50 in assay [1] and in assay [2] was > 25 µM throughout.

In the case of `COc1ccccc1C1CCN(C2CCC3(C2)CN(C(=O)C2COC2)C3)CC1` (single isomer, unassigned), the EC50 in assay [1] is > 25 µM.

As to `CCCCCCOc1nsnc1C1=CCCN(C)C1` [XANOMELINE], the EC50 in assay [1] amounted to 0.11 µM.
